Measurements taken from US9944600B2, “Piperidine derivatives for GPR119 agonist” (CHONG KUN DANG PHARMACEUTICAL CORP., priority 2012, dated 2018).

Key:
human GPR119 receptor = molecular target: T1, human GPR119 receptor (Homo sapiens, UniProt Q8TDV5); experiment: Activity test for human GPR119 receptor (GeneBLAzer T-Rex GPR 119 CHO-K1 DA cells, fluorescence reporter); type: cell-based; conditions: 5 hours treatment, ratio to vehicle control well
T1 construct: host or cells: GeneBLAzer T-Rex GPR 119 CHO-K1 DA cells (CHO-K1)
T1 sequence (Q8TDV5 1-335): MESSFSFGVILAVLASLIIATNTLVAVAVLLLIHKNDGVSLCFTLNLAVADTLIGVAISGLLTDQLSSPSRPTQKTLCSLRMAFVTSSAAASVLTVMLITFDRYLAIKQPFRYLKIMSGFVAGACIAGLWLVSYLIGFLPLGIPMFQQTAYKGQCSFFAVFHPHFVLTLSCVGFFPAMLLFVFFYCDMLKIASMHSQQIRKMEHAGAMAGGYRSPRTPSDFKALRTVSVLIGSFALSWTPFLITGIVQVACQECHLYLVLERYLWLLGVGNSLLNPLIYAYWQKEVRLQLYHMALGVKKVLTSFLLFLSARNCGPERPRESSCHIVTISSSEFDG
Method: As a human GPR119 receptor expression cell for this test, the cell line “GeneBLAzer™ T-Rex GPR 119 CHO-K1 DA cells” that is commercially available from Invitrogen, was used. The cell was incubated in the DMEM media containing 1% dialyzed fetal bovine serum etc. The cell incubator was kept at constant temperature and constant humidity of 37° C., 5% CO2.
The human GPR119 receptor expressing cell was used to this test. Each of test compounds was added to be final concentrations of 0.1, 1, 10 μM in 96 well and tested in duplicate. A fixed amount of cell was added to each well of 96 well separately, and then treated with the test compound for 5 hours. After treatment of color development agent for 2 hours, the fluorescence value was determined with plate reader. To the luminous wavelength of control well, which was not treated with the agonist sample, but in which only a vehicle (i.e., cell) was contained, the ratio of the luminous wavelength of test well, which was treated with the agonist sample, was calculated, and then converted to obtain % value.
All the results were expressed as mean±SD, and each test groups and the control group were compared using student's t-test to adjudge the effects of each test groups.

GPR 119 Receptor [1] = molecular target: T2, GPR 119 Receptor (Mus musculus, UniProt Q7TQP3); experiment: Glucose tolerance test in normal mouse (animal test of activity for the GPR 119 receptor); type: in vivo; conditions: normal male C57/6J Jms mice; for Decrease % of AUC at 10 mg/kg: oral glucose 2 g/kg, whole blood glucose AUC
T2 construct: from tissue; host or cells: whole animal: male C57/6J Jms mice (normal) or diet induced obesity C57BL/6J mice
T2 sequence (Q7TQP3 1-335): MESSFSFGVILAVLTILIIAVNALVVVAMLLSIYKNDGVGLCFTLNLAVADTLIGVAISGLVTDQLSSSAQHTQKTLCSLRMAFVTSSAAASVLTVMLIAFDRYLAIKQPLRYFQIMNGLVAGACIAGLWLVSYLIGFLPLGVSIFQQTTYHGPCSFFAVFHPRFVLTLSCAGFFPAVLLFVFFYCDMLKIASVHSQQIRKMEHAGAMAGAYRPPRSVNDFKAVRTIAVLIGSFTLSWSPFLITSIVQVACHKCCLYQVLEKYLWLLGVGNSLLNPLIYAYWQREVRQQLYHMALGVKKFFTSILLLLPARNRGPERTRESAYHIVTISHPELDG
Method: Male C57/6J Jms mice of 6-7 weeks of age were fasted for 16 hours before the start of glucose tolerance test. The experimental animal groups consist of: • A. a vehicle group (10% EtOH, 20% HPBCD in saline), • B. a positive control group administered with MBX-2982 (10 mg/kg), and • C. test groups administered with compound 516, 581, 586, 612, 640, 644 or etc. (10 mg/kg).
Before compound administration, that is, at 0 hour, whole blood glucose level was determined using a Glucometer (ACCU-CHEK, Roche). At 30 minutes after compound administration, whole blood glucose level was determined once again, and 20% glucose (2 g/kg/10 mL) was administered orally. Whole blood glucose level was determined at 20, 40, 60, 80, and 120 minutes after 20% glucose administration. Area under the curve (AUC) of whole blood glucose level was obtained using GraphPad Prism 5.0. The effect of glucose tolerance was adjudged with the corrected area under the curve (cAUC), on which the base value of glucose area under the curve was excluded.

GPR 119 Receptor [2] = molecular target: T2, GPR 119 Receptor; experiment: Glucose tolerance test / whole blood glucose level change in disease model animal (DIO mouse); type: in vivo; conditions: daily
Method: Male C57BL/6J mice of 6.5 weeks of age were taken with high fat diet (60% kcal, Research Diets) for 12 weeks. The obtained male diet induced obesity (DIO) C57BL/6J mice of 18.5 weeks of age were fasted for 16 hours before the start of glucose tolerance test. The experimental animal groups consist of: • A. a vehicle group (10% EtOH, 20% HPBCD in D.W.), • B. a positive control group administered with Sitagliptin (30 mg/kg), and • C. test groups administered with compound 770 and Compound 1028 (10, 30 mgkg and combination administration with sitagliptin 30 mg/kg).
Each test compounds was administered at the same time of every day for 2 weeks. Before the compound administration, whole blood glucose level was determined using a Glucometer (ACCU-CHEK, Roche). At 30 minutes after compound administration, whole blood glucose level was determined once again, and 20% glucose (2 g/kg/10 mL) was administered orally. Whole blood glucose level was determined at 20, 40, 60, 80, and 120 minutes after 20% glucose administration. Area under the curve (AUC) of whole blood glucose level was obtained using GraphPad Prism 5.0. The effect of glucose tolerance was adjudged with the corrected area under the curve (cAUC), on which the base value of glucose area under the curve was excluded.
Whole blood glucose level was measured at about 1 hour after test compound administration from caudal vein of mice using Glucometer. Whole blood glucose level was determined three times totally, that is, (1) at prior to the start of drug administration, (2) after 1 week from the start of 2-weeks drug administration, and (3) after the termination of 2-weeks drug administration. Each determination was started with 20% glucose administration, and then perfomed at 20, 40, 60, 80, and 120 minutes after 20% glucose administration.

[3] = 30 mpk alone, 0 week (prior to start of administration)

CC(C)(F)CN1CCC(COc2ccc(-c3ccc(C(=O)N4CCC[C@H]4C(N)=O)c(F)c3)nc2)CC1 [Compound 770, (S)-1-(2-fluoro-4-(5-((1-(2-fluoro-2-methylpropyl)piperidin-4-yl)methoxy)pyridine-2-yl)benzoyl)pyrrolidine-2-carboxamide]
activity at 0.1 µM (human GPR119 receptor; test compound conc. 0.1 μM, human GPR119 CHO-K1 reporter cells, read-out: % Activation): 228% | activity at 1 µM (human GPR119 receptor; test compound conc. 1 μM, human GPR119 CHO-K1 reporter cells, read-out: % Activation): 280% | activity at 10 µM (human GPR119 receptor; test compound conc. 10 μM, human GPR119 CHO-K1 reporter cells, read-out: % Activation): 310% | Decrease % of AUC at 10 mg/kg (GPR 119 Receptor [1]): 47% | Whole Blood Glucose Level Change (%) by drug administration (GPR 119 Receptor [2]; 10 mpk alone, 0 week (prior to start of administration)): 0% | Whole Blood Glucose Level Change (%) by drug administration (GPR 119 Receptor [2]; 10 mpk alone, 1 week): 22.9% | Whole Blood Glucose Level Change (%) by drug administration (GPR 119 Receptor [2]; 10 mpk alone, 2 weeks): 24.0% | Whole Blood Glucose Level Change (%) by drug administration (GPR 119 Receptor [2]; [3]): 0% | Whole Blood Glucose Level Change (%) by drug administration (GPR 119 Receptor [2]; 30 mpk alone, 1 week): 25.5% | Whole Blood Glucose Level Change (%) by drug administration (GPR 119 Receptor [2]; 30 mpk alone, 2 weeks): 26.6%

CCc1cnc(N2CCC(c3nc(COc4ccc(-n5cnnn5)cc4)cs3)CC2)nc1 [MBX-2982, reference compound]
maximum % activation (human GPR119 receptor; human GPR119 receptor expressing cell, test concentrations 0.1, 1, 10 μM): 200% | % Activation (human GPR119 receptor; test compound conc. 0.1 μM, human GPR119 CHO-K1 reporter cells): 180% | % Activation (human GPR119 receptor; test compound conc. 1 μM, human GPR119 CHO-K1 reporter cells): 206% | % Activation (human GPR119 receptor; test compound conc. 10 μM, human GPR119 CHO-K1 reporter cells): 200% | Decrease % of AUC at 10 mg/kg (GPR 119 Receptor [1]): 24% | Decrease % of AUC (drop effect in blood glucose level) (GPR 119 Receptor [1]; 10 mg/kg, oral 20% glucose 2 g/kg, whole blood glucose cAUC): 24%

N[C@@H](CC(=O)N1CCn2c(nnc2C(F)(F)F)C1)Cc1cc(F)c(F)cc1F [Sitagliptin, reference compound]
Whole Blood Glucose Level Change (%) by drug administration (GPR 119 Receptor [2]; [3]): 0% | Whole Blood Glucose Level Change (%) by drug administration (GPR 119 Receptor [2]; 30 mpk alone, 1 week): 25.5% | Whole Blood Glucose Level Change (%) by drug administration (GPR 119 Receptor [2]; 30 mpk alone, 2 weeks): 31.7%
